Measurements: patent US20080207859A1, “F[…] LOW RESIDUAL AMOUNT OF F[…] PROCESS FOR ITS PRODUCTION” (Asahi Glass Company, Limited, priority 2005, published 2008)

Assay: Measurement of 1-octanol/water partition coefficient (LogPOW) by HPLC, OECD Test Guideline 117
Assay type: physicochemical
Conditions: for LogPOW (1-octanol/water partition coefficient): HPLC method, OECD Test Guideline 117, calculated from elution time via calibration curve of standard carboxylic acids, column temperature 40° C.; for bioaccumulation potential (judged from LogPOW value compared to APFO): inferred from LogPOW relative to APFO
Procedure: In accordance with OECD Test Guideline 117, 1-octanol/water partition coefficient (LogPOW) of a fluorinated emulsifier was measured by using HPLC (high performance liquid chromatography).
Conditions for the measurement were as follows:
column: TOSOH ODS-120T column (φ4.6 mm×250 mm), eluent: acetonitrile/0.6 mass % of HClO4 aqueous solution=1/1 (vol/vol %), flow rate: […], sample amount: 300 μL, column temperature: 40° C., and detection light: UV 210 nm (WO2005-42593).
HPLC was carried out on standard substances (heptanoic acid, octanoic acid, nonanoic acid and decanoic acid) having known 1-octanol/water partition coefficients, and a calibration curve was prepared from the respective elution times and octanol/water partition coefficients of the respective standard substances. Based on this calibration curve, a value of partition coefficient (LogPOW) between 1-octanol and water was calculated from the elution time by HPLC of the fluorinated emulsifier.

Row | SMILES | LogPOW (1-octanol/water partition coefficient) | bioaccumulation potential (judged from LogPOW value compared to APFO)
1 | N.O=C(O)C(F)(F)C(F)(F)C(F)(F)C(F)(F)C(F)(F)C(F)(F)C(F)(F)F [CF3(CF2)6COONH4, ammonium perfluorooctanoate] | 3.67 | –
2 | N.O=C(O)C(F)(F)OC(F)(F)C(F)(F)OC(F)(F)C(F)(F)F [CF3CF2OCF2CF2OCF2COONH4] | 3.13 | low
3 | N.O=C(O)C(F)(OC(F)(F)C(F)(OC(F)(F)C(F)(F)F)C(F)(F)F)C(F)(F)F (centres unmarked) [CF3CF2OCF(CF3)CF2OCF(CF3)COONH4] | 4.03 | high
